Assay results published in a melting point compilation (Tetko et al.; mined from patent text by program, amines drawn as free bases though some values may be those of a salt).

Row | melting point [°C] | Structure (SMILES)
1 | 132 | CC(C)(C)OC(=O)NN1CCN([Si](C)(C)C)C1=O
2 | 206 to 208 | CCc1[nH]c(=O)[nH]c1C(=O)C(C)C
3 | 169 | O=c1ncc(Br)cn1COCc1ccccc1
4 | 137 to 138 | CC(=O)Nc1cc(C(F)(F)F)ccc1-c1cc(Oc2ccc3cccnc3c2)ncn1
5 | 174 to 175 | Cn1cc(-c2cccc(C(F)(F)F)c2)c(=O)c(C2CCCCC2)c1
6 | 219 to 221 | CNc1nc(O)nc2c(Cl)cc(OC)c(OC)c12
7 | 159 to 161 | CC12CCC(=O)C=C1CCC1C2CCC2(C)C(C(=O)C3CCCCC3)CCC12 (stereo unspecified)
8 | 82 to 84 | CC(C)(C)OC(=O)N[C@H]1CN(Cc2ccccc2)[C@@H]2CCCO[C@H]12 (relative stereo)
9 | 178 to 179 | Cn1c(C(F)(F)F)cc(=O)n(-c2cc(OCS(C)=O)c(Cl)cc2F)c1=O (stereo unspecified)
10 | 201 to 203 | COc1ccc(N2CCN(C(=O)[C@H](Cc3ccccc3)NC(=O)Nc3n[nH]c(=S)s3)CC2)cc1
11 | 114 | CCCCCCCCCCCC(=O)OCn1cc(F)c(=O)[nH]c1=O
12 | 101 | COC(=O)CCCc1cc2nc(Cl)ccc2n1S(=O)(=O)c1ccc(-c2nccs2)cc1
13 | 112 | CCCC(=O)OCC(=O)C1C(C)CC2C3=C(C(O)CC21C)C1(C)C=CC(=O)C=C1C(F)C3 (stereo unspecified)
14 | 103 to 104 | CC(C)(C)c1noc(-c2cccc(Cl)n2)n1
15 | > 250 | N#Cc1cnc2sc(-c3cccc(C=O)c3)cc2c1Cl
16 | 228 to 229 | O=C1C(O)=C(O)C(=O)c2cc(Cl)ccc21
17 | 96.5 to 97.5 | CCOC(=O)N1CCN(C2=Nc3ccccc3Sc3ccc(Cl)cc32)CC1
18 | 188 | COc1ccc(-c2c(C(N)=O)c3n(c2Cl)CCN(C(=O)OC(C)(C)C)C3)cc1
19 | 155 to 156 | O=C(CCCCCl)NC1c2ccccc2CSc2ccccc21 (stereo unspecified)
20 | 102 | COc1cccc2c1C(=O)C(CC=O)C2 (racemic)
21 | 179 to 180 | Cc1ccc(-n2nc(C#N)cc2-c2ccc(S(C)(=O)=O)cc2)cc1Br
22 | 135 to 136 | N#CCCNC(=O)C1=CC(CF)(CF)Oc2ccc(C(F)(F)C(F)(F)C(F)(F)F)cc21
23 | 61 to 63 | CCCCCCCCCCCCc1cc(CO)on1
24 | 196 to 197 | COc1ccc(Cn2ncc3c4c(cnc32)C(=O)NC4=O)cc1
25 | 133 to 134 | OC1CCCCC1c1ncc[nH]1 (stereo unspecified)

Row | melting point [°C] | Structure (SMILES)
26 | 175 to 177 | CNS(=O)(=O)c1ccccc1Nc1nc(Nc2ccc3c(c2)CCCC(=O)N3C)ncc1Cl
27 | 265 | Cc1c(C(=O)Nc2ccc(N3CCN(c4ccc(Cl)cc4)CC3)c(C#N)c2)cnn1-c1ccc(Cl)cc1
28 | 173 to 175 | CC(=O)N1CCC(N(C)C(=O)c2ccc3nonc3c2)CC1
29 | 105 to 108 | CC(C)(C)OC(=O)NC1CCN(C/C=C\CC(c2ccccc2)c2ccccc2)CC1
30 | 76 to 77 | Cc1c(C)c(O)c([Si](C)(C)C)c(C#C[Si](C)(C)C)c1O
31 | 175 | NOC(=O)C(=C(C(=O)C(F)(F)F)c1ccccc1)c1ccccc1
32 | 114 to 115 | CC(C)OC1(c2ccc(Cl)cc2)OC(c2ccncc2)=Nc2ccccc21 (stereo unspecified)
33 | 163 to 164 | CC(C(=O)O)c1ccc2c(c1)C(=O)Cc1c(Cl)cccc1S2 (stereo unspecified)
34 | 36 to 38 | CCCCCCCC(=O)SSC(=O)CCCCCCC
35 | 167 to 168 | COCCNC(=O)c1nc(C)c2cc(Cc3ccc(F)cc3)cnc2c1OCc1ccccc1
36 | 176 | Cc1ccc(N2C(=O)c3nccnc3C2OC(=O)Oc2ccccc2)nc1 (stereo unspecified)
37 | 97 to 99 | N#CC(C#N)c1cccc(Br)c1
38 | 154 to 156 | CC(C)(C)OC(=O)NC1CCCCCC=CC2CC2(C(=O)NS(=O)(=O)C2CC2)NC(=O)C2CC(OC(=O)c3ccc(F)cc3)CN2C1=O (stereo unspecified)
39 | 109 to 112 | CCSC(=NC(=O)N(C)C)NC(=O)NC
40 | 98 to 99 | CCc1oc2ccccc2c1C(O)c1ccccc1 (stereo unspecified)
41 | 43 to 47 | Cc1ccc(C(O)CCCO)cc1 (stereo unspecified)
42 | 126 | CCOc1n[nH]c(=O)n1C
43 | 182 to 183 | COC(=O)C(Oc1ccc(Cl)cc1)c1ccc(Oc2ccc(S(C)(=O)=O)cc2)cc1 (stereo unspecified)
44 | 112 | CCOC(=O)CCC1CCC2C(C=CC3=CCCc4c3n2c2ccncc42)C1 (stereo unspecified)
45 | 104 | CCOC(=O)c1c(C(C)Cl)nc2c(C(F)(F)F)cccc2c1O (stereo unspecified)
46 | 140 | Cc1noc(-c2cccc(Oc3ccc4c(c3)S(=O)(=O)NCCO4)c2)n1
47 | 108 to 110 | COc1ccc(C=Cc2ccc3cccc(O)c3n2)cc1
48 | 122 to 123 | CCC(C)Nc1nc2ccccc2c(=O)o1 (stereo unspecified)
49 | 158 to 161 | O=C(O)C(O)c1ccc2oc([N+](=O)[O-])c(-c3ccccc3)c2c1 (stereo unspecified)
50 | 108 to 110 | CCOC(=O)Cc1c(C(F)(F)F)nc(C)[nH]c1=O

Row | melting point [°C] | Structure (SMILES)
51 | 99 to 101 | COCn1cnc(-c2ccc(OC)cc2)c1-c1ccc(OC)cc1
52 | 269 to 270 | Cc1noc(-c2ncn3c2cnc2ccccc23)n1
53 | 127 to 128 | COC(=O)C1=C(C)NC(C)=C(c2nc(CN(C)Cc3ccccc3)no2)C1c1cccc([N+](=O)[O-])c1 (stereo unspecified)
54 | 71 to 72 | CCOC(=O)CC(O)Cc1ccc([N+](=O)[O-])cc1 (stereo unspecified)
55 | 210 to 212 | Cc1cccc(-c2nc(NCc3ccc(Cl)cc3)c3ccccc3n2)n1
56 | 182 to 185 | CCC(=O)Oc1ccc2c(c1)CCC1C2CCC2(C)C1CC(O)C2NC (stereo unspecified)
57 | 134 to 135 | COC(=O)C1C(c2cccc([N+](=O)[O-])c2)C(C(=O)OC(C)C)=C(C)NC1(O)c1ccccc1 (stereo unspecified)
58 | 267 to 269 | Nc1c2c(=O)[nH]c(C(F)(F)F)nc2nn1-c1ccccc1
59 | 187 to 190 | Cc1c(N2CCC(N)C2)c(F)cc2c(=O)c(C(=O)O)cn(C3CC3)c12 (stereo unspecified)
60 | 191 to 192 | COc1cc(NC(=O)Nc2ccc(N3CCN(C(=O)Nc4cc(OCCO)ccc4Cl)CC3)cc2)cc(OC)c1
61 | 170 | O=C(Nc1ccc(O)cc1[N+](=O)[O-])OCCCl
62 | 61 to 63 | CN1C(=O)N(CC(=O)COC(C)(C)C)C(=O)C1(C)C
63 | 96 to 100 | CS(=O)(=O)c1ccc(-c2cc(CO)nn2-c2ccc(Cl)cc2)cc1
64 | 129 to 130 | Cc1oc(-c2ccccc2)nc1COc1ccc(CON=C(CCCC(=O)O)c2ccccc2)cc1
65 | 99 to 100 | COc1ccc(CCCNC(=O)N(C)O)cc1OC
66 | 276 to 278 | O=C(Nc1nnc(Cc2ccc(Cl)cc2)s1)c1ccc2cccnc2c1O
67 | 176 to 177 | COC(=O)c1ccc(C(=O)Nc2ccc3c(c2)C(C)(C)CCC3(C)C)nc1
68 | 222 to 224 | COc1ccccc1N1CCN([C@@H]2Cc3c(O)ccc(O)c3C[C@H]2O)CC1 (relative stereo)
69 | 137 to 140 | COC(=O)c1ccc2ccc(NC(=O)OC(C)(C)C)c(Br)c2c1
70 | 124 to 128 | CC(=O)Oc1ccc(C(CN(C(C)=O)C(C)(C)C)OC(C)=O)nc1C (stereo unspecified)
71 | 150 to 156 | Fc1ccc(-c2cc(Cl)c3cc(Cl)ccc3n2)cc1
72 | 253 to 254 | Cc1ccc(OCC(=O)O)c2c3c(C(N)=O)cccc3n(Cc3ccccc3)c12
73 | 136 to 138 | COC(=O)c1ccc(OCC2CC(=O)N(c3ccc(N)cc3)C2)cc1 (stereo unspecified)
74 | 152 to 154 | Cc1ccc(C2=NN=C(c3ccccc3Cl)N(C)N2)cc1
75 | 166 to 170 | N#Cc1ccc2c(c1)Sc1ccccc1CC2=O

Row | melting point [°C] | Structure (SMILES)
76 | 134 to 135 | C=CCC1(C(O)C(c2cccc(Cl)c2)n2ccnc2)CC2C=CC1C2 (stereo unspecified)
77 | 165 to 168 | COC(=O)c1ccc(Cl)cc1NC(=O)CSc1ccc(O)cc1
78 | 58 to 61 | CCOC(=O)c1ccc([N+](=O)[O-])c(O)c1Br
79 | 191 to 192 | O=C(Nc1c(C(O)(C(F)(F)F)C(F)(F)F)ccc2ccccc12)c1cccs1
80 | > 300 | N#Cc1cc2nc(O)c(O)nc2c2[nH]nnc12
81 | 185 to 186 | CC(CC(=O)Nc1cc(-c2ccnc3c(C(=O)c4cccs4)cnn23)ccc1F)C(F)(F)F (stereo unspecified)
82 | 122 to 124 | Cc1cc(=O)n(-c2cc(OC(C)C)c(C)cc2F)c(=O)o1
83 | 188 to 190 | CC1OC(Cn2cncn2)(c2ccc(Cl)cc2Cl)CN1S(=O)(=O)c1ccc(C(F)(F)F)cc1 (stereo unspecified)
84 | 203 | CC(=O)Nc1c(C)c(C)c2c(c1[N+](=O)[O-])CC(C)(C)O2
85 | 92 to 94 | Cc1nc(-c2ccc(-c3ccc(C(=O)Nc4ccc5c(c4)OC(CN(C)C)CO5)cc3)c(C)c2)no1 (stereo unspecified)
86 | 235 to 236 | CCc1cn(C2CC(O)C(CNC(=O)C(CC)c3ccccc3)O2)c(=O)[nH]c1=O (stereo unspecified)
87 | 209 to 213 | COc1ccc2c(c1)C(=O)N(c1ccc3c(c1)cc(C)n3C)C2
88 | 63 to 65 | C#CCN1CCC(OC)(c2cccc(OCc3ccc4ccccc4c3)c2)C1 (stereo unspecified)
89 | 99 to 101 | CCCCCCCCCCCCCCCCCCOC1=CC(OCCCOc2ccc(C(C)(C)C)cc2)(N(CC(=O)O)CC(=O)O)CC=C1 (stereo unspecified)
90 | 178 to 179 | C=C(CN(C)C)C(O)c1ncc2c(c1O)COC2(C)c1ccccc1 (stereo unspecified)
91 | 218 | CN1CCN(c2cccc3ccc(C(O)(c4ccccc4)c4ccccc4)cc23)CC1
92 | 180 | CCOc1ccc2[nH]c(C(=O)O)cc2c1
93 | 241 to 243 | CCCCOc1c(CN2C(=O)c3ccccc3C2=O)n(CCNC(=O)OC)c(=O)c2cc(Cl)c(Cl)cc12
94 | 185 to 187 | N#Cc1cc(Br)ccc1NC(=O)c1cccc(S(=O)(=O)N2CCOCC2)c1
95 | 175 to 176 | COC(=O)C1CCc2c([nH]c3ccc(Cl)cc23)C1 (stereo unspecified)
96 | 198 to 201 | CC1(C)Nc2ncc(I)cc2N(Cc2cc(F)ccc2F)C1=O
97 | 175 to 176 | Cc1c(C)c2c(c(C)c1O)SC(c1ccccc1O)O2 (stereo unspecified)
98 | 222 to 226 | CC(=O)Nc1ccc(C2=NNC(=S)NC2C)cc1 (stereo unspecified)

Row | Structure (SMILES) | melting point [°C]
99 | COC(=O)CC1(CN=C=O)CCCCCC1 | 69 to 72
100 | Cc1cc(C(=O)NCO)ncc1C(c1c(F)ccc(F)c1F)S(=O)(=O)CCC(F)(F)F (stereo unspecified) | 146 to 148
101 | CC1Oc2c(F)cc(CN3CC=C(c4ccc(Cl)cc4)CC3)cc2NC1=O (stereo unspecified) | 214 to 233
